This passage reports IC50, ED50 and TD50 results from ChEMBL document CHEMBL1128119, “Partial structures of the fungal toxin aflatrem, methyl-substituted 6,8-dioxabicyclo[3.2.1]octan-2-ones have anticonvulsant activity” (Bioorg Med Chem Lett, 1995).

The structures appear in SMILES notation.

The target of data set [1] is GABA-A receptor; anion channel. The data set is described as follows: Displacement of [35S]TBPS from Gamma-aminobutyric acid A (GABA-A) receptor of rat cerebral cortex. The data set is classed as tissue-based. Background: Displacement assays read how much labelled ligand stays bound in the presence of the test substance.
Data set [2] is filed under the species Mus musculus. Briefly: Effective dose required for anticonvulsant activity against pentylenetetrazole-induced seizures in mice. The class given is functional.
Data set [3] is described as follows: Toxic dose at which 50 percent of the mice failed the rotarod toxicity test. The data set is classed as organism-based. As to conditions: mouse, in vivo. In general terms: In the rotarod test animals must keep their balance on a rotating rod.

In general, IC50 refers to the point on the concentration scale where inhibition reaches its midpoint. Lower therefore signals greater potency in that assay. One may read the ED50 as the dose that gives a 50% effect, or the effect in half of the subjects. The compound `C[C@@H]1CC(=O)[C@H]2O[C@@H]1OC2(C)C` yielded an IC50 in data set [1] of 2.85 mM. In addition, the ED50 in data set [2] was 110 mg/kg.

`C[C@H]1CC(=O)[C@@H]2O[C@H]1OC2(C)C` showed an IC50 in data set [1] of 3.09 mM. The ED50 in data set [2] is 145 mg/kg.

Broadly, the TD50 is the 50% point of the dose-response relation for the toxic effect studied. The low end stands for greater toxicity, the high end for lower toxicity. The compound `CCC1(C)CCOC1=O` (stereo not drawn) came in with a TD50 in data set [3] above 500 mg/kg.

As to `C=CC(C)(C)c1cccc2[nH]c3c(c12)C[C@@H]1CC[C@@]2(O)C4=CC(=O)[C@@H]5O[C@@]4(CC[C@]2(C)[C@@]31C)OC5(C)C`, in data set [1], the IC50 amounted to 0.0043 mM.

In turn, `CC1CC(=O)C2OC1(C)OC2(C)C` (stereo not drawn) came in with an IC50 in data set [1] of 2.31 mM. For the same compound, in data set [2], the ED50 stood at 140 mg/kg. Besides, in data set [3], the TD50 was above 300 mg/kg.

On to `CC1CC(=O)C2OC1OC2(C)C` (stereo not drawn), for which the IC50 in data set [1] was found to be 3.02 mM. Further, in data set [2], the 50% effect level (ED50) was put at a dose of 131 mg/kg. The compound also yielded a TD50 in data set [3] above 300 mg/kg.

In the case of `CCC1CCCCC1=O` (stereo not drawn), the IC50 in data set [1] turned out to be 1.2 mM. The ED50 in data set [2] came out at 140 mg/kg. In data set [3], the TD50 was found to be 245 mg/kg.

In data set [1], `CC1(C)OC2CCC(=O)C1O2` (stereo not drawn) showed an IC50 of 5.09 mM. The same compound registered an ED50 in data set [2] of 192 mg/kg. The TD50 in data set [3] was above 300 mg/kg.

For the compound `CC1(C)OC2C=CC(=O)C1O2` (stereo not drawn), the ED50 in data set [2] was above 300 mg/kg. In addition, in data set [3], the TD50 is below 100 mg/kg.

`CC12CCC(=O)C(O1)C(C)(C)O2` (stereo not drawn) returned a half-inhibitory concentration (IC50) in data set [1] of 3.13 mM. In addition, the ED50 in data set [2] stood at 247 mg/kg. For the same compound, the TD50 in data set [3] is above 300 mg/kg.
